The target in the assay is T1, human mGluR5d (Homo sapiens, UniProt P41594).
T1 construct: expressed in transfected cells; GHEK cells stably expressing human mGluR5d are named only for the IP3 assay
Briefly: FLIPR analysis of [Ca2+]i mobilization in cells expressing human mGluR5d. In kind it is cell-based. As for the experimental part: For FLIPR analysis, cells expressing human mGluR5das described in WO97/05252 were seeded on collagen coated clear bottom 96-well plates with black sides and analysis of [Ca^2+]i mobilization was done 24 h after seeding.
FLIPR experiments were done using a laser setting of 0.800 W and a 0.4 second CCD camera shutter speed. Each FLIPR experiment was initiated with 160 μl of buffer present in each well of the cell plate. After each addition of the compound, the fluorescence signal was sampled 50 times at 1 second intervals followed by 3 samples at 5 second intervals. Responses were measured as the peak height of the response within the sample period. EC50 and IC50 determinations were made from data obtained from 8-point concentration response curves (CRC) performed in duplicate. Agonist CRC were generated by scaling all responses to the maximal response observed for the plate. […]
FLIPR experiments were done using a laser setting of 0.800 W and a 0.4 second CCD camera shutter speed with excitation and emission wavelengths of 488 nm and 562 nm, respectively. […] After each addition the fluorescence signal was sampled 50 times at 1 second intervals followed by 3 samples at 5 second intervals. Responses were measured as the peak height of the response within the sample period. […]

The record followed here is patent US20070197549A1, “Tetrazole compounds and their use as metabotropic glutamate receptor antagonists” (AstraZeneca AB, priority 2004, published 2007).

T1 sequence (P41594 21-942 isoform P41594-3 limits assumed): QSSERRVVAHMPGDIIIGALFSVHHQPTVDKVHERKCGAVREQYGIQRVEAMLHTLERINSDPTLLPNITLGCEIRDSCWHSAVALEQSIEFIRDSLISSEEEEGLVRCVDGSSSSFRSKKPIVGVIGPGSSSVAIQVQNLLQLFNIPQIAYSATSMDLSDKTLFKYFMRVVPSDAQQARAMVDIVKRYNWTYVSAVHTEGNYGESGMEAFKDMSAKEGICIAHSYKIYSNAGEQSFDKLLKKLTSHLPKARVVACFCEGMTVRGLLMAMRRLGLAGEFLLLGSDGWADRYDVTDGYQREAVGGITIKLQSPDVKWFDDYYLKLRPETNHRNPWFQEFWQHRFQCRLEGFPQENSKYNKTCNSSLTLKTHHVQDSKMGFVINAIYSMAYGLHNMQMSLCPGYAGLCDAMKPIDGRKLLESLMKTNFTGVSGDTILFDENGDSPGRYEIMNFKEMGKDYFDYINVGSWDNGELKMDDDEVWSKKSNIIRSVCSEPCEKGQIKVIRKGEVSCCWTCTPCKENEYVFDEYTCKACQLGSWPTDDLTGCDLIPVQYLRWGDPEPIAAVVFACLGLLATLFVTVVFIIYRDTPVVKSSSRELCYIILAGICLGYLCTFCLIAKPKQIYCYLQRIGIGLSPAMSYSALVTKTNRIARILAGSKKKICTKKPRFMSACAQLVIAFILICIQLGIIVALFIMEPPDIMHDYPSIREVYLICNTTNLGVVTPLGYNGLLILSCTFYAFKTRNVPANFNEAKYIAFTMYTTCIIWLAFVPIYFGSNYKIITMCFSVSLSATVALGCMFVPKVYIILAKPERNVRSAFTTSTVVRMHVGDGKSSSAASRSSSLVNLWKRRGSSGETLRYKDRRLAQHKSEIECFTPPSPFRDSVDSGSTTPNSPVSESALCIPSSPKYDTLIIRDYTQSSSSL

`CC(Sc1nnc(-c2ccncc2)n1C)c1nnn(-c2cc(Cl)ccc2F)n1` (centres unmarked) [4-(5-{1-[2-(5-Chloro-2-fluoro-phenyl)-2H-tetrazol-5-yl]-ethylsulfanyl}-4-methyl-4H-[1,2,4]triazol-3-yl)-pyridine] had an IC50 of 0.055 µM. The compound `CCOC(=O)N1CCN(C(C)c2nnn(-c3cccc(Cl)c3)n2)CC1` (centres unmarked) [Ethyl 4-{1-[2-(3-chlorophenyl)-2H-tetrazol-5-yl]ethyl}piperazine-1-carboxylate] gave an IC50 of 0.132 µM.

Usually IC50 stands for the midpoint of a concentration-inhibition curve. A lower IC50 goes with higher potency.
